{"source": "paper PMC11507974", "about": "“Phytochemical Analysis, Antioxidant Activity and Bioassay-Guided Isolation of Acetylcholinesterase and Butyrylcholinesterase Inhibitors from Horsfieldia polyspherula Bark (Myristicaceae)” (Tropical Life Sciences Research, 2024)", "key": {"DPPH radical scavenging": {"test": "DPPH radical scavenging", "conditions": "15 min incubation, 517 nm", "method": "The free radical scavenging activity of the samples was determined using 1,1-diphenyl-2 picrylhydrazyl (DPPH) assay as described with minor modification ([Chua et al. 2013]). The DPPH solution was prepared by dissolving 3.0 mg of DPPH in 150 mL of methanol to afford 20 μg/mL. A 750 μL of the sample’s solution at different concentrations, ranging from 1.25 mg/mL to 40 mg/mL was added to 1,500 μL of DPPH solution. The absorbance was recorded at 517 nm using Shimadzu UV-2600 UV-Vis spectrophotometer after 15 min of incubation at room temperature. Ascorbic acid was used as the positive control, while methanol was used as negative control for scanning the background. The ability to scavenge the DPPH was calculated using Equation 2:\n(2) DPPH radical scavenging activity (%)=Abs control-Abs sample/Abs control×100\nwhere Abs control is the absorbance of DPPH while Abs sample is the absorbance of the sample. […] All experiments were performed in triplicates."}, "[1]": {"target": "T1, AChE from Electrophorus electricus (electric eel) Type V-S (Electrophorus electricus, UniProt O42275)", "T1 construct": "purified AChE from Electrophorus electricus (electric eel) Type V-S (C2888-1K); purchased Sigma Aldrich, Germany C2888-1K", "T1 sequence (O42275 24-633)": "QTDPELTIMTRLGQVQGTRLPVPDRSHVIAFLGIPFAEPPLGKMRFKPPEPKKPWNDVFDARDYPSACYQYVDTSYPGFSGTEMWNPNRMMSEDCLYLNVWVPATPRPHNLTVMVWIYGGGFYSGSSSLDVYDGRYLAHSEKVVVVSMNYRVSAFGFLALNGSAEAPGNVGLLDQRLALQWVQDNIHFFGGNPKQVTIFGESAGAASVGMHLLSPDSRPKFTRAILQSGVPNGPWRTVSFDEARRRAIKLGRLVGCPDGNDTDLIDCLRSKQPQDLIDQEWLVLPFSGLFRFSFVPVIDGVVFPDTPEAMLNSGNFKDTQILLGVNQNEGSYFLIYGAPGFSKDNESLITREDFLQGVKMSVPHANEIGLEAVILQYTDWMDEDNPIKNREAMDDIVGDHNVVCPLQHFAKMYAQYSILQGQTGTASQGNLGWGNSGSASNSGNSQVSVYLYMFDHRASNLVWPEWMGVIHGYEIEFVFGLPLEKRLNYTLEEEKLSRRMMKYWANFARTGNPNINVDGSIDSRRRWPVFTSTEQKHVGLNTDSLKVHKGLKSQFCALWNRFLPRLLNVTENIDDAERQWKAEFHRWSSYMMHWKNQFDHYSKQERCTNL", "test": "biochemical", "type": "biochemical", "conditions": "for SI (selectivity index for AChE): IC50 (BuChE)/ IC50 (AChE)", "method": "(§1) To assess the inhibitory activity of H. polyspherula extract, fractions and isolated compounds towards AChE and BuChE, Ellman’s spectrophotometric method was followed ([Ellman et al. 1961]) using purified AChE from Electrophorus electricus (electric eel) Type V-S (C2888-1K), and BuChE from equine serum lyophilized powder (C7512-1.2KU) all from Sigma Aldrich, Germany. The reaction took place in a final volume of 200 μL of a (140 μL to 160 μL) 100 mM phosphate-buffered solution at pH 7.5 for AChE and 8.0 for BuChE, containing (20 μL) 0.2 U of AChE or 0.1 U of BuChE. Inhibition curves were made by pre-incubating this mixture with six concentrations of each sample (20 μL) for 15 min. A sample with no compound (blank) was present to determine the 100% of enzyme activity. After the pre-incubation period, ten microlitre (10 μL) of 10 mM of 5,5′-dithiobis-2-nitrobenzoic acid (DTNB, D8130 Sigma Aldrich, Germany) was added prior to 14 mM (10 μL) acetylthiocholine iodide (A5751) or 14 Mm butyrylthiocholine iodide (B3253-5G) source from Sigma Aldrich, Germany) were added, DTNB produces yellow anion 5-thio-2-nitrobenzoic acid along with the enzymatic degradation of ATChI or BuTChI. Changes in absorbance were detected at 412 nm in a 96 well spectrophotometric microplate reader (Bostch Biotek) after 30 min. […] Data are analysed using excel, graph pad prism 9.0.0 and expressed as means ± SD of at least three different experiments in triplicate.\n(§2) (3) % inhibition=[…]/Abs (blank)×100"}, "BuChE from equine serum": {"target": "T2, BuChE from equine serum (Equus caballus, UniProt P81908)", "T2 construct": "BuChE from equine serum lyophilized powder (C7512-1.2KU); purchased Sigma Aldrich, Germany C7512-1.2KU; host or cells: equine serum", "T2 sequence (P81908 whole entry)": "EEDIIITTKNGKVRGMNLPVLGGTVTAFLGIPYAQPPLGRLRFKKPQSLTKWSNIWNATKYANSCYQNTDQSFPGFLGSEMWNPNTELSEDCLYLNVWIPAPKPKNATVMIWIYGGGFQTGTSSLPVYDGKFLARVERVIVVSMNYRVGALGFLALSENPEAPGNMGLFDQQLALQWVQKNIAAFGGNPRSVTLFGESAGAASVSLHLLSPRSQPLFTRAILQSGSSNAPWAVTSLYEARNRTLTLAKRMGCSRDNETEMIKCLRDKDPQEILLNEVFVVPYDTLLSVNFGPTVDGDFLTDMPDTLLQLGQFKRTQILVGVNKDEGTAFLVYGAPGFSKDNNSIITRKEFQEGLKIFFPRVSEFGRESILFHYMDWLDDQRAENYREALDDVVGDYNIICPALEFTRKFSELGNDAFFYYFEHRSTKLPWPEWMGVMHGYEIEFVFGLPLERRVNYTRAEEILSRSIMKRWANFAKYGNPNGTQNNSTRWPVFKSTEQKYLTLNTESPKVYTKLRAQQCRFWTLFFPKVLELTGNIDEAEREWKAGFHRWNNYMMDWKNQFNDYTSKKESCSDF", "test": "biochemical", "type": "biochemical", "conditions": "for SI (selectivity index for BuChE): IC50 (AChE)/ IC50 (BuChE)", "method": "as §1, §2"}, "[2]": {"conditions": "IC50 AChE, pure compounds (μM for the pure compound)"}, "[3]": {"conditions": "IC50 BuChE, pure compounds (μM for the pure compound)"}, "[4]": {"conditions": "pure compounds (μM for the pure compound)"}}, "note": "Like-named read-outs stand apart in the source and are kept apart here."}
{"smiles": "O=C1O[C@H]([C@@H](O)CO)C(O)=C1O", "note": "[Ascorbic acid, reference compound]", "values": [{"measurement": "IC50 of DPPH free radical scavenging activity", "setting": "DPPH radical scavenging", "value": "4.21 ± 0.13", "unit": "µg/mL"}]}
{"smiles": "O=C(O)c1ccc(O)c(O)c1", "note": "[Compound 3, 3,4-dihydroxybenzoic acid]", "values": [{"measurement": "SI (selectivity index for AChE)", "setting": "[1]", "value": 0.71}, {"measurement": "IC50", "setting": "[1]; [2]", "value": "327 ± 6.83", "unit": "µM"}, {"measurement": "SI (selectivity index for BuChE)", "setting": "BuChE from equine serum", "value": 1.41}, {"measurement": "IC50", "setting": "BuChE from equine serum; [3]", "value": "232 ± 8.37", "unit": "µM"}, {"measurement": "IC50 of DPPH free radical scavenging activity", "setting": "DPPH radical scavenging", "value": "6.56 ± 0.02", "unit": "µg/mL"}]}
{"smiles": "O=C(O)CCCCCCCCCCCCCCCc1ccccc1", "note": "[Compound 1, 16-phenylhexadecanoic acid]", "values": [{"measurement": "SI (selectivity index for AChE)", "setting": "[1]", "value": 0.88}, {"measurement": "IC50", "setting": "[1]; pure compounds (μM for the pure compound), read-out: IC50 AChE", "value": "46.8 ± 2.44", "unit": "µM"}, {"measurement": "SI (selectivity index for BuChE)", "setting": "BuChE from equine serum", "value": 1.14}, {"measurement": "IC50", "setting": "BuChE from equine serum; pure compounds (μM for the pure compound), read-out: IC50 BuChE", "value": "41 ± 1.99", "unit": "µM"}]}
{"smiles": "CCCCCCCCCCCc1ccccc1", "note": "[Compound 2, Undecylbenzene]", "values": [{"measurement": "SI (selectivity index for AChE)", "setting": "[1]", "value": 0.95}, {"measurement": "IC50", "setting": "[1]; [2]", "value": "246.1 ± 1.4", "unit": "µM"}, {"measurement": "SI (selectivity index for BuChE)", "setting": "BuChE from equine serum", "value": 1.05}, {"measurement": "IC50", "setting": "BuChE from equine serum; [3]", "value": "234 ± 4.78", "unit": "µM"}]}
{"smiles": "CCCCCCCCCCCCCC(=O)OCC(COC(=O)CCCCCCCCCCCCC)OC(=O)CCCCCCCCCCCCC", "note": "[Compound 9, Trimyristin]", "values": [{"measurement": "IC50 AChE", "setting": "[1]; [4]", "value": "no inhibitory activities"}, {"measurement": "IC50 BuChE", "setting": "BuChE from equine serum; [4]", "value": "no inhibitory activities"}]}
{"smiles": "CNC(=O)Oc1ccc2c(c1)[C@]1(C)CCN(C)[C@@H]1N2C", "note": "[Eserine, reference compound]", "values": [{"measurement": "% inhibition BuChE", "setting": "BuChE from equine serum; control, tested at 0.2 μM", "value": "44.45 ± 0.23", "unit": "%"}]}
